Data reported in PubChem BioAssay (NCI).
“And” between values parts separate entries of the source, which are not always exact repeats. Identical values can stand only once.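 Exposure lasted 48 hours, with cells grown in 96-well plates and compounds tested at five concentrations. At the GI50, growth is halved. At the TGI there is no net growth.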

Key:
Assay in all cases: NCI anticancer screen, dose series, 48 h
A549 NSCLC = system: A549 NSCLC
COLO 205 colon = system: COLO 205 colon
ACHN renal = system: ACHN renal
HL-60(TB) leukemia = system: HL-60(TB) leukemia
HOP-62 NSCLC = system: HOP-62 NSCLC
HCC-2998 colon = system: HCC-2998 colon
NCI-H522 lung = system: NCI-H522 lung
RPMI-8226 leukemia = system: RPMI-8226 leukemia
MALME-3M melanoma = system: MALME-3M melanoma
OVCAR-8 ovarian = system: OVCAR-8 ovarian

SMILES	GI50 (A549 NSCLC)	TGI (A549 NSCLC)	GI50 (COLO 205 colon)	TGI (COLO 205 colon)	GI50 (ACHN renal)	TGI (ACHN renal)	GI50 (HL-60(TB) leukemia)	TGI (HL-60(TB) leukemia)	GI50 (HOP-62 NSCLC)	TGI (HOP-62 NSCLC) [µM]	GI50 (HCC-2998 colon)	TGI (HCC-2998 colon)	GI50 (NCI-H522 lung)	TGI (NCI-H522 lung)	GI50 (RPMI-8226 leukemia)	TGI (RPMI-8226 leukemia)	GI50 (MALME-3M melanoma)	TGI (MALME-3M melanoma)	GI50 (OVCAR-8 ovarian)	TGI (OVCAR-8 ovarian) [µM]
Cn1cc(-c2ccc3c(c2)CCN3C(=O)Cc2cccc(C(F)(F)F)c2)c2c(N)ncnc21	7.61 µM	25.5 µM	4.23 µM	17.9 µM	0.871 µM	13.2 µM	5.39 µM	33 µM	8.17 µM	29.2	13.1 µM	28.4 µM	10.1 µM	29 µM	3.84 µM	27.7 µM	2.03 µM	13.3 µM	4.47 µM	40.5
Fc1ccc(Nc2nccc(-c3c(-c4ccc(C(F)(F)F)cc4)nn4ncccc34)n2)cc1F	> 25 µM	> 25 µM	> 25 µM	> 25 µM	> 25 µM	> 25 µM	> 25 µM	> 25 µM	> 25 µM	> 25	> 25 µM	> 25 µM	> 25 µM	> 25 µM	> 25 µM	> 25 µM	> 25 µM	> 25 µM	> 25 µM	> 25
O=C(Cc1ccccc1)N/N=C(\C1=Nc2ccc([N+](=O)[O-])cc2NC1O)C(O)c1ccc([N+](=O)[O-])cc1 (stereo not given)		> 100 µM		> 100 µM		> 100 µM		> 100 µM		> 100		> 100 µM		> 100 µM		> 100 µM		> 100 µM		> 100
CCCCCc1c(C)[nH]c(/C=C2\N=C(c3ccc[nH]3)C=C2Oc2ccc(Cl)cc2)c1C	0.0753 µM and 0.0264 µM	0.382 µM and 0.229 µM	0.129 µM and 0.0289 µM	1.77 µM and 1.18 µM	0.196 µM and 0.0397 µM	1.22 µM and 2.11 µM	0.213 µM and 0.0637 µM	1.48 µM and 1.01 µM	0.148 µM and 0.187 µM	14.6	0.0439 µM and 0.0241 µM	2.67 µM and 7.35 µM	0.0455 µM and 0.0305 µM	1.02 µM and 1.28 µM	0.0602 µM and 0.0163 µM	1.23 µM and 1.57 µM	0.337 µM and 0.129 µM	1.6 µM and 1.54 µM	0.16 µM and 0.0296 µM	1.98
CCOC(=O)c1cnn(-c2ccnc3c(C(F)(F)F)cccc23)c1N	> 100 µM	> 100 µM	> 100 µM	> 100 µM	> 100 µM	> 100 µM	> 100 µM	> 100 µM	> 100 µM	> 100	> 100 µM	> 100 µM	> 100 µM	> 100 µM	98.4 µM	> 100 µM	> 100 µM	> 100 µM	> 100 µM	> 100
C/C(=N\NC(N)=O)C(CN(C)C)C(c1ccccc1)c1c(O)c2ccccc2oc1=O (stereo not given)		> 100 µM		> 100 µM		> 100 µM		> 100 µM		> 100		> 100 µM		> 100 µM		> 100 µM		> 100 µM		> 100
